From patent US10955415B2, “CD247 as a biomarker for assessing the effect of chemotherapeutic and biological drugs” (YISSUM RESEARCH DEVELOPMENT COMPANY OF THE HEBREW …, priority 2011, dated 2021)
“Also recorded” adds a separate entry of the source.

Columns and labels:
[1] = tested on: CD247 in NK (NCR1+) cells; test: CD247 expression in gated NK (NCR1+) cells from spleen; type: in vivo; conditions: spleen of BCG-inflamed mice, monotherapy
Protocol: FIG. 2E. CD247 expression was measured gating on NK (NCR1+) cells derived from the spleens of each group. Data from three independent experiments is presented (n=4). Statistical analyses using t test indicated significant differences at 95% Cl. Means and SEM are shown. *, P<0.05.
Isolated splenocytes and peripheral blood leukocytes (PBLs) were treated with erythrocyte lysis buffer and washed in PBS. Cells were pre-coated with anti-CD16/CD32 (Biolegend) for FcR blockage. For surface staining, cells were incubated for 30 min at 4° C. with FITC-labeled anti-Gr1, anti-CD11c, and anti-CD4; PE-labeled anti F4/80, anti-CD3ε, anti-CD45R/B220, and anti-mNKp46; and biotinylated anti-CD11b and anti-CD8 that were detected with streptavidin-Cy5 (Biolegend and eBioscience). Intracellular staining of CD247 cells was performed by subjecting the cells to fixation with paraformaldehyde (1%) for 20 min at 4° C., followed by washing and permeabilization for 10 min with saponin detergent (0.1%) at room temperature (RT). Cells were then washed and incubated with FITC-labeled monoclonal anti-CD247 (H146) (Abcam), or biotinylated monoclonal anti-CD247 (H146), which were subsequently detected with streptavidin-Cy5. FoxP3 staining was performed according to the manufacturer's instructions. Samples were analyzed using FACSCalibur with Cell Quest software (BD).

CD4+Foxp3+ Treg cells = tested on: CD4+Foxp3+ Treg cells; parameters: species or system mice; conditions: mouse, in vivo
colorectal cancer (CRC) = test: Survival, colon structure and tumor loads of CRC-bearing mice; type: in vivo
Protocol: Survival of mice CRC, CRC-5-FU or CRC-5FU/CPT-11 treatment is shown as Kaplan-Meyer curve (n=20). Time points of AOM injections and the period of DSS addition are represented by gray arrows and lines, respectively. Start point of chemotherapy treatment and continual boosts are shown as black arrows.
The mouse model for CRC was established by two repeated injections of azoxymethane (AOM) (Sigma) in intervals of two weeks followed by two weekly administrations of DSS (Sigma) that was added to drinking water every two weeks for duration of about seven days. In order to test the influence of chemotherapeutic drugs on the induced-chronic inflammatory environment in a CRC model, after the second DSS treatment mice were randomized into three groups (n=10 mice) as follows: CRC control group, CRC and 5-FU i.p inoculated group and CRC and CPT-11 i.p inoculated group. Mice were sacrificed at week +11, three weeks after the second DSS treatment.
It important to note that in each of the experiments performed (presented in FIG. 21 and FIG. 22), pathological macroscopic and microscopic tests have been performed on the structure of the colon and counts were made of the tumor loads.

Thy1.2+ (CD90+) T-cells = test: T-cell proliferation of CFSE-labeled splenocytes activated with anti-CD3 and anti-CD28; type: in vivo; conditions: splenocytes of BCG-inflamed treated mice, anti-CD3/anti-CD28 activation
Protocol: FIG. 2C. Splenocytes from untreated, inflamed, and inflamed-treated i.v. with irinotecan were labeled with CFSE and activated with anti-CD3 and anti-CD28 antibodies or left non-activated. The proliferative response was assessed by monitoring cell divisions of gated CFSE-labeled Thy1.2+ (CD90+) cells. Data was calculated by percent of proliferating cells compared to steady state of non-activated of each group.
FIG. 18A-18E. Splenocytes and PBLs from mice untreated (naïve), inflamed, or inflamed and treated with 5-FU or CPT-11 were fixed, permeabilized, and double stained for the expression of CD247 (ζ-chain) (FIGS. 18A, 18B) and CD3ε-chain (FIGS. 18D, 18E), as shown by mean fluorescence intensity (MFI), measured in gated CD3^+ cells. FIG. 18C: Splenocytes from mice, naïve, inflamed and inflamed treated with 5-FU or CPT-11, were labeled with CFSE and activated with anti-CD3 and anti-CD28 antibodies or left non-activated. The proliferative response was assessed by monitoring cell divisions of gated CFSE-labeled Thy1.2+ (CD90+) T-cells. The percent of proliferating cells was calculated and compared to steady state levels of non-activated cells per each group. Data from three independent experiments is presented (n=3). Statistical analyses using t test indicated significant differences at 95%. Means and SEM are shown. *, P<0.05; **, P<0.01. FIG. 18F-18I. For the detection of myeloid differentiation state, splenocytes from each group were stained for (18F) DC11b^+CD11c^+ cells (representing DCs), (18G) DC11b^+F4/80^+ cells (representing monocytes), (18H) CD11c^+MHCII^+CD80^+ cells (representing fully differentiated […] as antigen presenting cells) and (18I) F4/80^+MHCII^+CD80^+ cells (representing fully differentiated […] as antigen presenting cells). Data from three independent experiments (n=4) is presented. Statistical analyses using t test indicated significant differences at 95%. Means and SEM are shown. *, P<0.05; **, P<0.01; ***, P<0.001. Abbreviations: Nor. (normal), Rel. (relative), Inf. (inflamed), ce. Pro. (cell proliferation)

TNFα, IL-6, IFNγ = test: Real Time PCR of inflammatory cytokines in MDSCs and total splenocytes; type: in vivo, mice; conditions: relative to inflamed untreated; for mRNA levels of TNFα and IL-6: spleen-derived MDSCs and total splenocytes
S100A8/9 = S100A8/9 mRNA and S100A9 immunoblot in purified MDSCs and total spleen; type: in vivo; conditions: purified MDSCs and total splenic population, BCG-inflamed mice; for S100A9 protein levels: immunoblot
Source text: FIG. 17A. Purified MDSCs from spleens (n=4); and FIG. 17B. A total spleen population was used to analyze mRNA levels of S100A8/9 (left), and to perform immunoblotting of S100A9 (right) following the course of chronic inflammation alone, chronically inflamed mice treated with 5-FU or CPT11 (n=4), α-Tubulin levels served as a control.
Analyses used either the splenocyte population or peripheral blood as mentioned above. Cells (5×10^7/ml, or 1×10^6/ml) were lysed with Tris-NaCl buffer containing 0.5% Triton X-100 and protease inhibitors for 30 min on ice. Proteins were resolved on 12% SDS-PAGE and subjected to immunoblotting analysis using the following specific antibodies: anti-CD247, antiCD3ε antibodies, anti-S100A9, anti-S100A8, anti-iNOS, anti-ARG1, and anti-αTubulin antibodies. Specific antibodies were detected by incubation with protein A (Amersham), anti-rat or anti-goat antibodies conjugated to horseradish peroxidase (Jackson Immunoresearch), followed by enhanced chemiluminescence and exposure to Kodak X-ray films.
Total RNA was recovered from splenocytes or isolated MDSCs using Tri-Reagent (Sigma) and was subjected to reverse transcription with m-MLV-RT (Invitrogen) and random primers (IDT). Quantitative mRNA expression was analyzed by real-time PCR (ABI 7900), with SYBR green (Invitrogen). RT-PCR primers were designed to recognize an exon-exon boundary in all transcripts.

CD247 (ζ chain) = tested on: CD247 (ζ chain); parameters: species or system mice; conditions: mouse, in vivo
MDSCs [2] = test: MDSC infiltration in colon lamina propria and epithel, CRC mouse model; type: in vivo; conditions: CRC-bearing mice, tumor tissue
CD247 (ζ-chain) = test: CD247 expression in spleen and PBLs, CRC mouse model; type: in vivo; conditions: CRC (AOM/DSS) mice, vs untreated CRC-bearing mice
Source text: Means and SEM are shown. *, P<0.05; **, P<0.01. […] (normal).

MDSCs [3] = type: in vivo, mice; conditions: mouse, in vivo
MDSCs (Gr1+CD11b+) = test: MDSC accumulation in spleen and PBLs, AOM/DSS colorectal cancer (CRC) mouse model; type: in vivo; conditions: CRC (AOM/DSS) mice, i.p., vs untreated CRC group
Source text: The mouse model for CRC was used as described in Experimental procedures. […] Mice were sacrificed at week +11, three weeks after the second DSS treatment. […] Graphs represent the percent of MDSCs presented within the spleen (FIG. 21A) and PBLs (FIG. 21C). Data from three independent experiments (n=3) is presented. […] Means and SEM are shown. *, P<0.05; **, P<0.01; ***, P<0.001.
The mouse model for CRC was established by two repeated injections of azoxymethane (AOM) (Sigma) in intervals of two weeks followed by two weekly administrations of DSS (Sigma) that was added to drinking water every two weeks for duration of about seven days. […] Mice were sacrificed at week +11, three weeks after the second DSS treatment.

Row | SMILES | levels of Treg cells (CD4+Foxp3+) in spleen (CD4+Foxp3+ Treg cells) | survival of CRC mice (Kaplan-Meyer) (colorectal cancer (CRC)) | mRNA levels of TNFα and IL-6 (TNFα, IL-6, IFNγ) | mRNA levels of S100A8/9 (S100A8/9) | S100A9 protein levels (S100A8/9) | CD247 expression in T cells, PBLs (CD247 (ζ chain)) | CD247 expression in T cells, spleen (CD247 (ζ chain)) | MDSCs infiltration in lamina propria and colon epithelial tissue (MDSCs [2]) | CD247 expression levels in spleen and blood (CD247 (ζ-chain)) | NO production by MDSCs (MDSCs [3]) | ROS production by MDSCs (MDSCs [3]) | MDSC percentage in PBLs (MDSCs (Gr1+CD11b+)) | MDSC percentage in spleen (MDSCs (Gr1+CD11b+)) | further results
1 | CCc1c2c(nc3ccc(OC(=O)N4CCC(N5CCCCC5)CC4)cc13)-c1cc3c(c(=O)n1C2)COC(=O)[C@]3(O)CC [Irinotecan] | remained unchanged | reduced survival rate | no significant changes | no significant changes | remained high | further significantly decreased; also recorded: tendency of decreased expression | further significantly decreased; also recorded: strong down-regulation | significantly increased | low as in the case of CRC-bearing, non-treated mice | significant elevation; also recorded: did not result in any further changes | significant elevation; also recorded: significantly increased | no changes | significantly increased | CD247 expression in NK (NCR1+) cells ([1]; listed as CPT11): low CD247 expression; CD247 expression in NK (NCR1+) cells ([1]; listed as CPT-11): remained down-regulated with no further decrease; proliferative capacity of T cells (Thy1.2+ (CD90+) T-cells; listed as CPT11): impaired proliferative capacity; proliferative capacity of T cells (Thy1.2+ (CD90+) T-cells; listed as CPT-11): significantly diminished; mRNA level of IFNγ (TNFα, IL-6, IFNγ; MDSCs and total spleen-population): decreased
2 | O=c1[nH]cc(F)c(=O)[nH]1 [5-FU, 5-Fluorouracil] | remained unchanged | increased survival | no significant changes | significant decrease | decreased amounts | significant recovery | recovered significantly; also recorded: significant recovery | significantly reduced | significantly recovered | decreased | decreased | significant decrease | significant decrease | CD247 expression in NK (NCR1+) cells [1]: recovery from immunosuppression; also recorded: almost completely recovered; curable effects on colon structure and tumor loads (colorectal cancer (CRC); macroscopic and microscopic pathology): observed; proliferative capacity of T cells (Thy1.2+ (CD90+) T-cells): tendency of a functional recovery; reduction of hROS of MDSCs (MDSCs [3]): better results
